Active and inactive are the calls of the source.
Tests used:
[1] = viability of uninfected HEp-2 cells – cell-based, HTS, cytotoxicity control for RSV inhibitor project, dose response (AID 2410); type: functional; conditions: human respiratory syncytial virus
[2] = Luminescence Cell-Based Dose Retest to Confirm Inhibitors of Cancer Stem Cells. [Related pubchem assays (depositor defined):AID2717, AID2721]; type: functional; conditions: Homo sapiens
Protein skinhead-1 = molecular target: T1, Protein skinhead-1 (Caenorhabditis elegans, UniProt P34707); type: functional
T1 sequence (P34707 whole entry): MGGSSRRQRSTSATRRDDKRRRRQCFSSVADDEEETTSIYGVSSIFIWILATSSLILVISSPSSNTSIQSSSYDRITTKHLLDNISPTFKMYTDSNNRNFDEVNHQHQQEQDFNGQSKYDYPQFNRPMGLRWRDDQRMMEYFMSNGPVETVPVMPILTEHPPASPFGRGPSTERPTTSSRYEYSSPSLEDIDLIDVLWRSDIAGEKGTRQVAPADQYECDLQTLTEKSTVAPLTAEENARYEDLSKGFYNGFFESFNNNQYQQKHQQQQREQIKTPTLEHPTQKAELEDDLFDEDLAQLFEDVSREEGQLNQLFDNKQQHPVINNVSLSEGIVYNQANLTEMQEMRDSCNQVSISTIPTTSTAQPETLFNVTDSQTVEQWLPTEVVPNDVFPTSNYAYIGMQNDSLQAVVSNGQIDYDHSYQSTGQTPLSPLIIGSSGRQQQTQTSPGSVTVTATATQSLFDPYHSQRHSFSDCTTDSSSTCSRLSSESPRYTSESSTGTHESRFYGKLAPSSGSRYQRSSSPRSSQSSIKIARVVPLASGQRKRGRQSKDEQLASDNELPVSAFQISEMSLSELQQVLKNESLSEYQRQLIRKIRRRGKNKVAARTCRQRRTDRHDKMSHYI

H9c2 = assay: cells; type: functional, cell-based; conditions: Rattus norvegicus, H9c2, Myocardium;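 note: confirmatory concentration-response retest of ultra-high-throughput screening hits for modulation of myocardial damage; cell death induced by hydrogen peroxide oxidative stress; compound pretreatment for 60 min then peroxide exposure for 2 h; potency is for protecting the cells against peroxide damage rather than for killing them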
[3] = molecular target: T2, Heat shock factor protein 1 (Mus musculus, UniProt P38532); assay: decrease of HSF1-responsive luciferase luminescence – cell-based, NIH3T3, dose retest, confirmation (AID 2382); type: functional;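 note: NIH3T3 fibroblasts with HSF1-driven luciferase reporter stressed by proteasome inhibitor MG132; luminescence from HSF1-driven luciferase expression after 8 hours of MG132 stress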
T2 sequence (P38532 whole entry): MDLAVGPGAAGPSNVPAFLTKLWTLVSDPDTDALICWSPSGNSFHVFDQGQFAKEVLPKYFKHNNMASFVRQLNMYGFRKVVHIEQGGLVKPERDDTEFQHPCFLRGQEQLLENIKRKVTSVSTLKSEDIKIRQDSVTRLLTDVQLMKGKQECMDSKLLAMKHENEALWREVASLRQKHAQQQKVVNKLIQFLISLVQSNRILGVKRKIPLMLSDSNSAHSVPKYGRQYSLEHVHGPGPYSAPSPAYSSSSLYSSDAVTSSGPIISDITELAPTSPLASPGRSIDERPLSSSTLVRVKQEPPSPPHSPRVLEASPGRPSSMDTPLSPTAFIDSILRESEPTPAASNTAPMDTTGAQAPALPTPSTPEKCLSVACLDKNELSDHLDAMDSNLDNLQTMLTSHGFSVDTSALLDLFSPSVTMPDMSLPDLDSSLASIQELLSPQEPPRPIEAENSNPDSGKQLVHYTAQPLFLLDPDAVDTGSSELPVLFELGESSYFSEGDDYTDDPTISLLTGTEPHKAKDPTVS

Cytochrome P450 2D6 = Cytochrome P450 2D6 (Homo sapiens, UniProt P10635);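 note: CYP2D6 member of a cytochrome P450 panel assay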
Cytochrome P450 3A4 = Cytochrome P450 3A4 (Homo sapiens, UniProt P08684);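 note: CYP3A4 tested as one member of a cytochrome P450 panel screen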
Cytochrome P450 2C9 = Cytochrome P450 2C9 (Homo sapiens, UniProt P11712)
Protein RecA = molecular target: T3, Protein RecA (Mycobacterium tuberculosis, UniProt P9WHJ3); assay: Fluorescence Cell-Free Homogeneous Dose Retest to Identify Inhibitors of RecA-Intein Splicing Activity. [Related pubchem assays (depositor defined):AID2097, AID2223, AID489010, AID492950]; type: functional
T3 sequence (P9WHJ3 whole entry): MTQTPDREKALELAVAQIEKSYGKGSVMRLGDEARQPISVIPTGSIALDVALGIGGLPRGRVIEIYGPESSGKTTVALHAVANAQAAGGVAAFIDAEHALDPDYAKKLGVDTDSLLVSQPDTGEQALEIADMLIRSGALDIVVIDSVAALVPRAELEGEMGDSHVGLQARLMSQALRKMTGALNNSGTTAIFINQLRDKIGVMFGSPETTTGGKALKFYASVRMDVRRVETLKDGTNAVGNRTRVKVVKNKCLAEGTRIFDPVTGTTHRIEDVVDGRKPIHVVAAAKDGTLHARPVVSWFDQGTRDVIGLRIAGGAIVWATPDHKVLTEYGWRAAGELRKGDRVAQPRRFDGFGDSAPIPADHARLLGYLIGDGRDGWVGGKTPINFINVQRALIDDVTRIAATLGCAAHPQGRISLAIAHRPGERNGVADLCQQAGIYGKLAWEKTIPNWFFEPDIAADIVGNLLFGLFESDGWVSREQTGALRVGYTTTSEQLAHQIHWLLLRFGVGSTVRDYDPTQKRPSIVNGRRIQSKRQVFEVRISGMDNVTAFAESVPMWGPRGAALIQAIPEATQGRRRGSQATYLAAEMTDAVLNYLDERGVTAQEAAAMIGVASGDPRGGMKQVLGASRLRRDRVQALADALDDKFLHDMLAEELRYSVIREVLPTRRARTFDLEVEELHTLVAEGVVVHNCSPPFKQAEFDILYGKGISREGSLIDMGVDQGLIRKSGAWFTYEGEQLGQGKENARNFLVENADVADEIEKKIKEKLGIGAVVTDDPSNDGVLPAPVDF

[4] = molecular target: T4, Replicative DNA helicase DnaB (Mycobacterium tuberculosis, UniProt P9WMR3); assay: DnaB intein splicing inhibitors, dose response, biochemical, cell-free fluorescence (AID 449749); type: functional
T4 sequence (P9WMR3 whole entry): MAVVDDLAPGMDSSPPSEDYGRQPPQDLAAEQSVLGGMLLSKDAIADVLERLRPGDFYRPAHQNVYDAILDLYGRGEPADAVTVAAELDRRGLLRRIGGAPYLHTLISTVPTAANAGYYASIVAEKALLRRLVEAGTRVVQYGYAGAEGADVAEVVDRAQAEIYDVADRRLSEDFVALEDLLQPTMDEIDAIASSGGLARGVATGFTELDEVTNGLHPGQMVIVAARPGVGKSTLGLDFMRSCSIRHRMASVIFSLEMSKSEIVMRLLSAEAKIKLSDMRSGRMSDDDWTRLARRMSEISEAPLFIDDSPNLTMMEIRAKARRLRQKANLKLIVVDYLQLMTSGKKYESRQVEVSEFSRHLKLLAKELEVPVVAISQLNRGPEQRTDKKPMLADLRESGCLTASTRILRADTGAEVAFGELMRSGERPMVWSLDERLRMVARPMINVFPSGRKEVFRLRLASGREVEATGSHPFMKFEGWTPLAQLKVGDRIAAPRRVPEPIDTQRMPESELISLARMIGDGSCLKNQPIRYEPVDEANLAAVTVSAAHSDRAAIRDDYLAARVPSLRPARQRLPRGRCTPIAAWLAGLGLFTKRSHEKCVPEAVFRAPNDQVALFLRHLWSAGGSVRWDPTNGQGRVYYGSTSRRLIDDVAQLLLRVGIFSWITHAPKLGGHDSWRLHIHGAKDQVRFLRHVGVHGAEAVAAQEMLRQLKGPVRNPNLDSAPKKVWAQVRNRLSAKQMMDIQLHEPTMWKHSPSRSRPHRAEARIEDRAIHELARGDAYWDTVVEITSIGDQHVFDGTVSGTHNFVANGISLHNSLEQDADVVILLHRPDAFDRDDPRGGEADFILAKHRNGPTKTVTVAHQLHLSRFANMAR

Paired box protein Pax-8 = Paired box protein Pax-8 (Homo sapiens, UniProt Q06710); assay: PAX8 transcriptional activity inhibition in RMG-I – RMG-I cells, luciferase, cherry-pick, dose response (AID 687027); type: functional, cell-based;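 note: luciferase reporter driven by Pax8 target thyroperoxidase promoter measured by SteadyGlo luminescence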
[5] = alpha-synuclein stem-loop luciferase translation blockers – H4 neuroglioma cells, luminescence, confirmation (AID 1988); type: functional, cell-based
[6] = Luminescence Cell-Based Dose Response HTS to Identify Inhibitors of 5'UTR Stem-Loop Driven Prion Protein mRNA Translation in H4 Neuroglioblastoma Cells. [Related pubchem assays: 1827 (Project Summary), 1813 (Primary HTS)]; type: functional
[7] = luciferase reporter signal suppression in cells – H4 neuroglioma cells, luminescence, dose response (AID 1990); type: functional, cell-based

Sequence of Cytochrome P450 3A4 (P08684 whole entry): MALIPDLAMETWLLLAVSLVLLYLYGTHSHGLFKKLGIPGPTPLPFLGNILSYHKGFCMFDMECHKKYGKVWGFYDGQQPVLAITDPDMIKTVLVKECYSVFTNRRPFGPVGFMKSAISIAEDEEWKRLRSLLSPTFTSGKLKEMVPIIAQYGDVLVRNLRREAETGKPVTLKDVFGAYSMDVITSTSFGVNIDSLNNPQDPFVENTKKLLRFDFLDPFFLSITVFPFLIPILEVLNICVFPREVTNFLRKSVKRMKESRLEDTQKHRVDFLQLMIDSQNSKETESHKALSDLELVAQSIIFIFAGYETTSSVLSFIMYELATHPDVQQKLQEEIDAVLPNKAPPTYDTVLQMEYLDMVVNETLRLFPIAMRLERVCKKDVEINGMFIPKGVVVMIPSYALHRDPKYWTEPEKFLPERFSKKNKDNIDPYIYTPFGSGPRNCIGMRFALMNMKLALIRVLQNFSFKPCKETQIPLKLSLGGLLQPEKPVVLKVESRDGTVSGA
Sequence of Paired box protein Pax-8 (Q06710 whole entry): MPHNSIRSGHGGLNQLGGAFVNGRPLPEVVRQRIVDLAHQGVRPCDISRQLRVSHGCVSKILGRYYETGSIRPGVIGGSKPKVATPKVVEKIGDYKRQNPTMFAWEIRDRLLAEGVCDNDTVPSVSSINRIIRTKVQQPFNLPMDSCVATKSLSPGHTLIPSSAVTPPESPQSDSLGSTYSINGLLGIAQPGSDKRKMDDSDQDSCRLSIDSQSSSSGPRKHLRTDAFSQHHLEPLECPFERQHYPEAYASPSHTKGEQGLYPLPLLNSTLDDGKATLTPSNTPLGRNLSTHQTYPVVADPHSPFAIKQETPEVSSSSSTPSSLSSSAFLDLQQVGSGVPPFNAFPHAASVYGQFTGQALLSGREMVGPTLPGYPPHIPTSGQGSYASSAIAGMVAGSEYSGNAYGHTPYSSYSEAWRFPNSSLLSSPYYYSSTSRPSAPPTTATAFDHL
Sequence of Cytochrome P450 2D6 (P10635 whole entry): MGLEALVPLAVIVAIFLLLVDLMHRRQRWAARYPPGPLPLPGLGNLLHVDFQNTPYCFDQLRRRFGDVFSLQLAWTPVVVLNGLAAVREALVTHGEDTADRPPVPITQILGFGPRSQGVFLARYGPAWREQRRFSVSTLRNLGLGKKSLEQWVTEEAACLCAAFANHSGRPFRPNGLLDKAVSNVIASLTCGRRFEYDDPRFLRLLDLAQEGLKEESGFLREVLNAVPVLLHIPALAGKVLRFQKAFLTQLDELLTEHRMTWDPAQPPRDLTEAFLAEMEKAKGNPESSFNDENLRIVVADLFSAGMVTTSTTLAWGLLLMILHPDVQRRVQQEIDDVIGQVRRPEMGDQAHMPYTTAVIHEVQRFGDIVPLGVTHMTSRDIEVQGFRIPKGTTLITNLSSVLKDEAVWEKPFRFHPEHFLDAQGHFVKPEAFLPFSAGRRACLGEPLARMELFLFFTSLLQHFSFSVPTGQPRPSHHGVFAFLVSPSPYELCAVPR
Sequence of Cytochrome P450 2C9 (P11712 whole entry): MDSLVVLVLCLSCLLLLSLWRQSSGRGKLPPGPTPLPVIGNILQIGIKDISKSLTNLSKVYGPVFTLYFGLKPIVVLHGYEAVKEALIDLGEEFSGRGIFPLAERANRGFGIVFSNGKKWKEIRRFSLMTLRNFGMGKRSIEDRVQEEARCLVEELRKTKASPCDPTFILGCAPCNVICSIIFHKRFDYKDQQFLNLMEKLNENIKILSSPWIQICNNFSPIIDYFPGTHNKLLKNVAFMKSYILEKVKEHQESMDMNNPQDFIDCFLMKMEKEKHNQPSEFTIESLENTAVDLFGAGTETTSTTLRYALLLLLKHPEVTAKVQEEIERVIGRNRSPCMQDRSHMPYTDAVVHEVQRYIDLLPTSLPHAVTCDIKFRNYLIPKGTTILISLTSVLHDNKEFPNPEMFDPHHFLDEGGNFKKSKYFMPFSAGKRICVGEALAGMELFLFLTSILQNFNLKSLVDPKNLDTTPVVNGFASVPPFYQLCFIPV

O=C(Nc1ccc(NC(=S)NC(=O)c2ccccc2Cl)cc1)c1cccc(Cl)c1
CC50 [1]: > 50 µM (active)
AC50 [2]: 3.26 µM (active)

O=C1C2C(C(=O)N1Cc1cccnc1)C1C=CC2C12CC2 (centres undefined)
IC50 (Protein skinhead-1): > 100 µM (inactive)

COc1ccc(Cl)cc1-c1nc(-c2ccc(NC(=O)c3cccs3)cc2)no1
IC50 (H9c2): > 79 µM (inactive)
CC50 [1]: 23.2 µM (active)

O=C(CNC(=O)C12CC3CC(CC(C3)C1)C2)NCc1ccccc1
EC50 [3]: > 195 µM (not active)

O=Cc1ccc(OC(=O)Cc2ccc(F)cc2)cc1
EC50 [3]: > 195 µM (not active)

FC(F)(F)c1nnc2n1N=C(c1cccs1)CS2
CC50 [1]: 22.6 µM (active)

Cc1ccccc1OCC(=O)Nc1ccc([N+](=O)[O-])cc1
EC50 [3]: > 195 µM (not active)

Cc1ccc(C2=NN(S(=O)(=O)c3ccccc3)C(c3ccco3)C2)cc1 (centres undefined)
CC50 [1]: 8.13 µM (active)

Cc1ccccc1OCCCn1c(=O)sc2ccccc21
CC50 [1]: 32.2 µM (active)
AC50 (Cytochrome P450 2D6): 11.2 µM (inconclusive)
AC50 (Cytochrome P450 3A4): 17.8 µM (inconclusive)

Cc1ccc(C2CC(=O)Oc3cc(O)ccc32)cc1 (centres undefined)
IC50 (Protein skinhead-1): > 100 µM (inactive)

CC(=O)c1cccc(NC(=O)Nc2ccc3c(c2)N(C)C(=O)CS3)c1
IC50 (H9c2): > 79 µM (inactive)

C[C@@H](NC(=O)c1[nH]cnc1C(=O)NCC(=O)OCc1ccccc1)c1ccccc1
IC50 (H9c2): > 79 µM (inactive)

CCCN(CCC)C(=O)CSc1nc2ccsc2c(=O)n1NC(=O)c1ccccc1
EC50 [3]: > 195 µM (not active)

CCCN(Cc1nnc(-c2ccccc2Cl)o1)C(=O)c1cc2ccccc2o1
CC50 [1]: 19.5 µM (active)

CCCCOc1ccc2c(c1)C(=O)c1cc(O)ccc1-2
CC50 [1]: 11.7 µM (active)

Cn1ncc([N+](=O)[O-])c1C(=O)Nc1ccccc1Cl
EC50 [3]: > 195 µM (not active)

COc1cccc(C(=O)Nc2ccc(C3CC3(Cl)Cl)cc2)c1 (centres undefined)
AC50 [2]: 3.15 µM (active)

CC1CCCCC1N1CN=C(Nc2nc3ccccc3s2)NC1 (centres undefined)
IC50 (Protein skinhead-1): > 100 µM (inactive)

COc1ccc(NS(=O)(=O)c2ccc3[nH]c(COc4ccc5ccccc5c4)nc3c2)cc1
EC50 [3]: > 195 µM (not active)

O=C(NCc1ccco1)c1cnn2c(C(F)(F)F)cc(-c3cccs3)nc12
IC50 (H9c2): 34.1 µM (inactive)

O=C1/C(=C/c2cccs2)CCC1C1CCCC1 (centres undefined)
IC50 (Protein skinhead-1): > 100 µM (inactive)

O=C(Nc1ccc2[nH]c(-c3ccccc3)nc2c1)c1cccs1
IC50 (Protein skinhead-1): > 100 µM (inactive)

CC1(C)Cc2ccccc2C(CSc2ccccc2C(=O)O)=N1
AC50 [2]: 4.98 µM (active)

COCCn1nnnc1C(C(C)C)N(Cc1cccnc1)Cc1cc2cc(OC)ccc2nc1O (centres undefined)
IC50 (H9c2): 21.8 µM (active)

CCc1ccccc1NC(=O)COc1cccc2ccc(C)nc12
EC50 [3]: > 195 µM (not active)

CCOc1ccccc1C1C(C#N)=C(N)Oc2[nH]nc(CC)c21 (centres undefined)
AC50 (Cytochrome P450 2C9): 17.8 µM (inconclusive)
AC50 (Cytochrome P450 3A4): 7.08 µM (inconclusive)
EC50 (Protein RecA): 7.04 µM (active)
AC50 [4]: 13.4 µM (active)

COCC(=O)Nc1sc2c(c1C(=O)OC)CCCC2
IC50 (Protein skinhead-1): > 100 µM (inactive)

CNc1nc(-c2ccccc2)nnc1C(F)(F)F
CC50 [1]: 27.7 µM (active)

COc1cc2cnc(-c3ccccc3)c(-c3cccc(C(F)(F)F)c3)c2cc1OC
AC50 [2]: 4.47 µM (active)

Cc1cnc(NC(=O)CC(C)c2ccccc2)s1 (centres undefined)
IC50 (Protein skinhead-1): > 100 µM (inactive)

COC(=O)c1oc2ccc(Cl)cc2c1-n1cccc1
IC50 (Protein skinhead-1): > 100 µM (inactive)

Clc1ccc(C=Cc2ccccn2)cc1
IC50 (Protein skinhead-1): 5.71 µM (active)

CC(=O)NC(CCc1ccc(Cl)c(Cl)c1)c1cccc(O)c(=O)c1 (centres undefined)
IC50 (H9c2): > 79 µM (inactive)
AC50 (Paired box protein Pax-8): 2.08 µM (active)

Cc1ccc(S(=O)(=O)N(C)C)cc1NC(=O)COC(=O)Cc1nnc(O)c2ccccc12
IC50 (H9c2): > 79 µM (inactive)

O=C(CNC(=O)c1ccc(F)cc1)N/N=C/c1cc(Br)ccc1OC(=O)/C=C/c1ccco1
IC50 (H9c2): 19 µM (active)
EC50 [5]: 8.72 µM (active)
EC50 [6]: 12.1 µM (active)
EC50 [7]: 11.8 µM (active)

CC(=O)Nc1cc(-c2cccc(C(=O)N(C)C)c2)cn2c(-c3ccc(C(C)=O)cc3)cnc12
IC50 (H9c2): > 79 µM (inactive)

CCCOc1ccc2[nH]c(C(=O)N/N=C/c3cc(OC)c(OC)c(OC)c3)cc2c1
IC50 (H9c2): > 79 µM (inactive)
AC50 (Paired box protein Pax-8): 2.89 µM (active)

Cc1[nH]c2ccccc2c1/C=N/NC(=O)c1cc(-c2ccccc2)[nH]n1
IC50 (H9c2): > 79 µM (inactive)

O=c1cc(-c2ccccc2)[nH]n1-c1ccc([N+](=O)[O-])cc1
AC50 [2]: 4.13 µM (active)
EC50 (Protein RecA): 11 µM (active)
AC50 [4]: 3.09 µM (active)

O=[N+]([O-])c1ccc(O)c(/C=N/c2ccc3oc(Cc4ccc(Cl)cc4)nc3c2)c1
EC50 [3]: > 195 µM (not active)

— ChEMBL document CHEMBL1201862, “PubChem BioAssay data set” (2004)
